Read-outs that look alike come from different tables or passages of the source.
Legend:
[1] = SAD and MAD first-in-human pharmacokinetic studies; assay type: in vivo; settings: SAD study, 75 mg oral solution, healthy human subjects; for AUC(0-t): human, po, 75 mg
Method: Healthy human subjects (N=85) were selected for single ascending dose (SAD) and multiple ascending dose (MAD) first-in-human studies. A solution for oral administration was prepared, containing 10 mg/mL of Compound 5 in a 50:50 mixture of […], Michigan) and sterile water for irrigation. Sufficient solution was administered orally to the subjects to provide between 15 mg/dose and 75 mg/dose of Compound 5 in the SAD study and between 10 mg/dose and 40 mg/dose of Compound 5 in the MAD study. Concentrations of Compound 5 were measured in the subjects by obtaining a sample of plasma from each subject at desired intervals, and subjecting the plasma to liquid chromatography-mass spectrometry-mass spectrometry (LC-MS/MS), with quantification using a calibration curve determined from a range of solutions at standardized concentrations. The lower limit of quantitation (LLOQ) of the assay was 1 ng/mL and the calibration curve range was 1 to 500 ng/mL.

[2] = system: patients with idiopathic pulmonary fibrosis (IPF); assay: Phase 2a randomized, double-blind, placebo-controlled trial in IPF; assay type: in vivo, human; settings: FIG. 36
[3] = system: participants with idiopathic pulmonary fibrosis (IPF); assay: Phase 2a clinical trial: quantitative ground glass (QGG) score on HRCT; assay type: in vivo, human; settings: for QGG score, Change to Week 12, LS Mean (SE): placebo 0.0 (0.63); for QGG score, Change to Week 24, LS Mean (SE): placebo −0.7 (1.66)
[4] = system: participants with idiopathic pulmonary fibrosis (IPF); assay: Phase 2a clinical trial ([…]-IPF): Forced Vital Capacity (FVC) spirometry; assay type: in vivo, human; settings: for Proportion of Participants with FVCpp Decline ≥10%, ITT, FIG. 20: placebo (N=23) 17.4%; for LS Mean (SE) change from Baseline in FVC at Week 12, ITT, Not on SoC subgroup, FIG. 30: placebo (n=7) −28.2; for Proportion of participants with Absolute FVCpp decline ≥10%, ITT, FIG. 31 / Proportion of participants with Relative FVCpp decline ≥10%, ITT, FIG. 29: placebo (n=31) 12.9%; for LS Mean (SE) change from Baseline in FVC at Week 12, mITT, FIG. 27: placebo (n=31) −64.2
[5] = system: pSmad2/Smad2; assay: Alveolar (BAL) pSmad2/Smad2, change from baseline at 24 hours (FIG. 12, prior studies); assay type: in vivo, human; settings: 80 mg and 160 mg, p<0.0001 at both doses
Source text: FIG. 12 through FIG. 33 illustrate various details and results from the clinical trial. […] In FIG. 12, BAL refers to bronchoalveolar lavage; pSmad2/Smad2 refers to ratio of phosphorylated Smad2 to total Smad2; and QD refers to once daily. **** refers to p<0.0001.

[6] = system: bleomycin-treated mice; assay: Murine bleomycin model (pSMAD3, collagen deposition); assay type: in vivo, mice (C57BL/6)
Method: Mice (C57BL/6) were divided into healthy (n=15), vehicle-treated (n=15), and test article-treated (n=15 per dose) groups. Mice in the vehicle and test article-treated groups were administered 3 U/kg of bleomycin (Teva Pharmaceuticals; North Wales, PA) via oropharyngeal aspiration while under anesthesia on day 0. Healthy animals were administered water in a similar fashion. Starting on day 7, mice in the control group were administered PBS vehicle, 130 μL, by oral gavage, BID for 14 days. Also starting on day 7, mice in the test group were administered Compound 5 in PBS by oral gavage, BID for 14 days, at relative dosages of 1×, 2.5× and 5×. […] From day 14 through day 21, 9 of the 15 mice were administered ^2H2O for labeling. All mice were sacrificed on day 21 and tissues were collected. Samples were prepared for analysis either directly from lung tissue, or by bronchoalveolar lavage, which washes out the bronchiolar and alveolar space with saline to produce a bronchoalveolar lavage fluid (BALF) in which 80-90% of cells are alveolar macrophages.
FIGS. 4F, 4G, and 4H show high resolution second harmonic generation images of fibrillar collagen (collagen type I and III) taken from formalin-fixed paraffin embedded lung tissue sections from a healthy mouse lung (4F), a vehicle-treated mouse lung (4G) and a test-article treated mouse lung (4H; 500 mg/kg BID). Color scale is indicative of collagen fiber density (red=most dense; blue=least dense).
FIG. 41 is a graph showing the percent total collagen area in the second harmonic generation mouse lung images. Large structural areas of collagen found similarly in healthy and fibrotic tissues (dense collagen fibers surrounding airways were excluded from this analysis to focus on interstitial fibrotic collagen). […] The 1×, 2.5×, and 5× dosages were at the same absolute values in mg/kg as in Example B7.
The data for FIGS. 4J and 4K, was obtained 14 days after bleomycin challenge in mice were treated with Compound 5 at 2.5× dose (PO, BID for 1.5 days).

[7] = system: lung Col1a1 expression; assay: Precision cut lung slices, chronic bleomycin exposure, Col1a1 expression; assay type: cell-based, mice (C57BL/6); settings: chronic bleomycin PCLS, 7 days culture
Method: Mice (C57BL/6) were administered 3 U/kg of bleomycin (Teva Pharmaceuticals; North Wales, PA) on Day 0 and 1 U/kg of bleomycin on days 14, 28, 42 and 56 via oropharyngeal aspiration while under anesthesia. At day 70, 14 days after the final bleomycin insult, precision cut lung slices were obtained. […] The lobes were then subjected to precision slicing to obtain samples for culture using a microtome (Compresstome VF-300-OZ, Precisionary; Greenville, NC). Individual slices were distributed in a multiwell culture plate and cultured for 7 days under control (DMSO) and test compound conditions. The viability of the slices over the course of culturing was confirmed by WST-1 assay of mitochondrial activity. […] Compound 5; and the small molecule ALK5 inhibitor. […] Compound 5 was run at approximate IC50 for inhibition of TGF-beta activation by αVβ6.

[8] = bleomycin mice, 1×, […], 5×, vs control mice

COCCN(CCCCc1ccc2c(n1)NCCC2)CC[C@H](Nc1ncnc2ccccc12)C(=O)O [Compound 5, (S)-4-((2-methoxyethyl) (4-(5,6,7,8-tetrahydro-1,8-naphthyridin-2-yl)butyl)amino)-2-(quinazolin-4-ylamino) butanoic acid]
Thalf [1]: 20.0 ± 3.6 h
AUC(0-t) ([1]; plasma, read-out: AUC0-24): 19.7 ± 10.9 µg·h/mL
AUC(0-t) ([1]; plasma, read-out: AUC0-48): 22.5 ± 15.7 µg·h/mL
Cmax ([1]; plasma): 1.87 ± 1.24 µg/mL
Tmax ([1]; plasma): 2.9 ± 1 h
patients with FVC improvement at week 12 who maintained improvement in FVC at week 24 [2]: About 89%
QGG score, Change to Week 12, LS Mean Diff (SE) vs. Placebo ([3]; 40 mg (n 15)): 1.3 (1.04)
QGG score, Change to Week 12, LS Mean (SE) ([3]; 40 mg (n 15)): 1.3 (0.82)
QGG score, Change to Week 12, LS Mean Diff (SE) vs. Placebo ([3]; 80 mg (n 18)): −1.2 (0.98)
QGG score, Change to Week 12, LS Mean (SE) ([3]; 80 mg (n 18)): −1.2 (0.74)
QGG score, Change to Week 12, LS Mean Diff (SE) vs. Placebo ([3]; 160 mg (n 14)): −0.1 (1.05)
QGG score, Change to Week 12, LS Mean (SE) ([3]; 160 mg (n 14)): 0.0 (0.84)
QGG score, Change to Week 24, LS Mean Diff (SE) vs. Placebo ([3]; 320 mg (n 14)): −1.2 (1.53)
QGG score, Change to Week 24, LS Mean (SE) ([3]; 320 mg (n 14)): −1.8 (1.31)
QGG score, Change to Week 12, LS Mean Diff (SE) vs. Placebo ([3]; 320 mg (n 16)): −0.2 (1.01)
QGG score, Change to Week 12, LS Mean (SE) ([3]; 320 mg (n 16)): −0.2 (0.79)
QGG score, Change to Week 24, LS Mean Diff (SE) vs. Placebo ([3]; All Compound 5 (n 14)): −1.2 (1.53)
QGG score, Change to Week 24, LS Mean (SE) ([3]; All Compound 5 (n 14)): −1.8 (1.31)
QGG score, Change to Week 12, LS Mean Diff (SE) vs. Placebo ([3]; All Compound 5 (n 63)): −0.1 (0.76)
QGG score, Change to Week 12, LS Mean (SE) ([3]; All Compound 5 (n 63)): −0.1 (0.40)
Ground glass scores over a 12-24 week period after treatment ([3]; instant study): decreased or remained stable
LS Mean Change From Baseline in FVC at week 12, On SoC Subgroup (MMRM, ITT) ([4]; 40 mg (N=17), placebo −95.2 mL): -58.3 mL
Proportion of Participants with FVCpp Decline ≥10%, ITT, FIG. 20 ([4]; 40 mg (N=22), 12 weeks): 18.2%
LS Mean (SE) change from Baseline in FVC at Week 12, ITT, Not on SoC subgroup, FIG. 30 ([4]; 40 mg (n=5)): -43.5 mL
Proportion of participants with Absolute FVCpp decline ≥10%, ITT, FIG. 31 ([4]; 40 mg (n=22)): 9.1%
Proportion of participants with Relative FVCpp decline ≥10%, ITT, FIG. 29 ([4]; 40 mg (n=22)): 18.2%
Proportion of Participants with FVCpp Decline ≥10%, ITT, FIG. 20 ([4]; 80 mg (N=23), 12 weeks): 8.7%
LS Mean (SE) change from Baseline in FVC at Week 12, ITT, Not on SoC subgroup, FIG. 30 ([4]; 80 mg (n=4)): 138.5 mL
Proportion of participants with Absolute FVCpp decline ≥10%, ITT, FIG. 31 ([4]; 80 mg (n=23)): 8.7%
Proportion of participants with Relative FVCpp decline ≥10%, ITT, FIG. 29 ([4]; 80 mg (n=23)): 8.7%
LS Mean (SE) change from Baseline in FVC at Week 12, mITT, FIG. 27 ([4]; 80 mg (n=23)): 22.8 mL
Proportion of Participants with FVCpp Decline ≥10%, ITT, FIG. 20 ([4]; 160 mg (N=22), 12 weeks): 4.5%
LS Mean (SE) change from Baseline in FVC at Week 12, ITT, Not on SoC subgroup, FIG. 30 ([4]; 160 mg (n=3)): 26.4 mL
Proportion of participants with Absolute FVCpp decline ≥10%, ITT, FIG. 31 ([4]; 160 mg (n=22)): 4.5%
Proportion of participants with Relative FVCpp decline ≥10%, ITT, FIG. 29 ([4]; 160 mg (n=22)): 4.5%
LS Mean (SE) change from Baseline in FVC at Week 12, mITT, FIG. 27 ([4]; 160 mg (n=22)): -28.7 mL
Participants with a ≥10% absolute decline in FVC over 24 weeks ([4]; 320 mg): no Compound 5-treated participants
LS Mean (SE) change from Baseline in FVC at Week 12, ITT, Not on SoC subgroup, FIG. 30 ([4]; 320 mg (n=4)): 19.8 mL
Proportion of participants with Absolute FVCpp decline ≥10%, ITT, FIG. 31 ([4]; 320 mg (n=21)): 0%
Proportion of participants with Relative FVCpp decline ≥10%, ITT, FIG. 29 ([4]; 320 mg (n=21)): 0%
LS Mean (SE) change from Baseline in FVC at Week 12, mITT, FIG. 27 ([4]; 320 mg (n=21)): 26.8 mL
Participants with a decline of ≥10% in percent predicted FVC (FVCpp) ([4]; 320 mg, 12 weeks): No participants
Reduction of the decline from baseline in FVCpp compared to placebo ([4]; 320 mg, Week 24): 68%
Average decrease in FVC at 24 weeks, ITT, SoC subgroup, FIG. 35 ([4]; 320 mg, patients on standard of care (pirfenidone or nintedanib), placebo 172.8 mL): 35.0 mL
Patients showing an improvement in FVC at 24 weeks, ITT, FIG. 36 ([4]; 320 mg, placebo 0%): 50%
Average decrease in FVC at 24 weeks, ITT, FIG. 34 ([4]; 320 mg, placebo 109.3 mL): 35.9 mL
Change in FVC percent predicted from baseline at Week 24, ITT, FIG. 37 ([4]; 320 mg, placebo −[…]): −0.8%
Proportion of participants with FVCpp decline of ≥10% ([4]; 40, 80, 160 mg, 12 weeks): dose-dependent reduction
Change in FVC from Baseline to Week 12 (MMRM, ITT) ([4]; pooled Compound 5 groups 40-160 mg (n = 67), placebo −74.1 mL): -15.1 mL
Reduction in FVC decline over 12 weeks compared to placebo ([4]; pooled active groups 40-160 mg): 80%
Alveolar pSmad2/Smad2, Percentage Change from Baseline at 24 Hours vs. placebo [5]: statistically significant
relationship between pSMAD3 levels in lung and BALF cells vs. plasma drug exposure ([6]; 14 days after bleomycin challenge, […] dose PO BID for 1.5 days): close inverse relationship
accumulated new collagen (percentage of lung collagen containing 2H-labeled hydroxyproline) ([6]; bleomycin mice, 1× and 5×, vs control mice): dose-dependent reduction
percent total collagen area in second harmonic generation images [6, 8]: substantial, statistically significant dose-dependent reduction
total pulmonary collagen (μg of hydroxyproline) [6, 8]: reduction in total pulmonary collagen
SMAD3 phosphorylation in lung tissue ([6]; bleomycin mice, oral gavage BID 14 days, 1×, […], 5× dosages, vs vehicle): substantial, statistically significant dose-dependent reductions
lung Col1a1 expression, normalized to DMSO control slices [7]: decreased lung Col1a1 expression substantially
